# Reference: paper PMC11590026, “Synthesis, enzyme inhibition, and docking studies of new schiff bases of disalicylic acid methylene-based derivatives as dual-target antibacterial agents” (Frontiers in Chemistry, 2024)
# Values joined by “and” are separate entries in the source; they are usually repeats but may differ in a detail not shown here. Identical values can stand only once. Like-named read-outs stand apart in the source and are kept apart here.
# Assays:
# E. coli = assay: MIC/MBC assay, twofold serial dilution; type: cell-based, Escherichia coli; settings: for MBC: read-out: MBC
# Method: (§1) The results of this in vitro assay test are consistent with the findings of the antimicrobial sensitivity test. […] It has lower antimicrobial activity than ciprofloxacin against all pathogens tested.
# (§2) The MBC differs from the MIC. […]
# (§3) 4.2.2. Minimum inhibitory concentration assay
# (§4) In 96-well microtiter plates and […] of fresh bacterial culture of a single McFarland unit overnight, a double serial dilution of each compound […] in sterile standard saline were prepared to every single source well. Ciprofloxacin antibiotic (5 mg / mL - 1) and normal saline were included as standard reference in each assay. The plates were incubated at 37 0C overnight. As an indicator of bacterial growth, […] of p-iodonitrotetrazolium violet (INT) was added to each well and incubated at 37 0C for 30 […]
# (§5) min. MIC values are recorded as the lowest concentration of the extract that completely inhibited bacterial growth that is clear well. The colorless tetrazolidium salt acts as an electron accepter and is reduced to a red colored formazan product by biological activity organisms. Where bacterial growth was inhibited, the solution in the well remained clear after incubation with INT. […]
# DHFR E. Coli = DHFR E. Coli (Escherichia coli, UniProt P0ABQ4); assay: DHFR inhibitory assay; type: biochemical
# Chain of DHFR E. Coli (P0ABQ4 whole entry): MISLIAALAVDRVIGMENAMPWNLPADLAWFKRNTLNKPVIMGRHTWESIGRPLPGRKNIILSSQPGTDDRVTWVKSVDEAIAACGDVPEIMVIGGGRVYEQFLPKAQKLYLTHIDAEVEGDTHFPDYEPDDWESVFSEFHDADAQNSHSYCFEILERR
# Gram-positive bacteria = assay: MBC assay, Gram-positive bacteria together; type: cell-based; settings: Gram-positive bacteria (B. subtilis, S. aureus)
# Text: The MBC differs from the MIC.
# B. subtilis = assay: MIC/MBC assay, twofold serial dilution; type: cell-based, Bacillus subtilis
# Method: as §1, §2, §3, §4, §5
# C. albicans = assay: Antifungal assay (MIC/MFC), twofold serial dilution
# S. aureus = assay: MIC/MBC assay, twofold serial dilution; type: cell-based, Staphylococcus aureus
# Method: as §1, §2, §3, §4, §5
# [1] = tested on: MDRB (multi-drug resistant bacteria); assay: MIC/MBC against the MDRB panel as a whole; settings: for MBC: read-out: MBC values; for MIC: read-out: MIC values
# Text: Norfloxacin, a broad-spectrum antibiotic, worked as positive control.
# A. flavus = assay: Antifungal assay (MIC/MFC), twofold serial dilution; settings: for MIC: A. flavus
# E. coli (ATCC BAA-196) = assay: Antibacterial assay against multi-drug resistant strains (MIC/MBC); type: cell-based, Escherichia coli; settings: for MBC: ATCCBAA196
# [2] = tested on: S. aureus (ATCC 43300) (MRSA); assay: as above; type: cell-based, Staphylococcus aureus; settings: for MBC / MIC: S. aureus ATCC 43300 (MRSA)
# [3] = Cell viability assay (MTT); type: cell-based; settings: human, 4-day incubation
# Method: The vitality of the investigated compounds was assessed using the MCF-10A cell line, which is a normal human mammary gland epithelial cell line. Following a 4-day incubation period on MCF-10A cells with a concentration of 50 µM for each compound being studied, the viability of the cells was assessed using the MTT test ([Hisham et al., 2022]; [Mahmoud et al., 2022]).
# 4.2.3. Cell Viability assay
# MTT assay was carried out to study the effect of compounds on mammary epithelial cells (MCF-10A). The medium in which cells were propagated contained Dulbecco's modified Eagle's medium (DMEM)/ Ham's F-12 medium (1:1) supplemented with epidermal growth factor (20 ng/mL), hydrocortisone (500 ng/mL), insulin (10 μg/mL), 2 mM glutamine and 10% fetal calf serum. After every 2-3 days, the cells were passaged using trypsin ethylenediamine tetra acetic acid (EDTA). The cells were seeded at a density of 10^4 cells mL-1 in flat-bottomed culture plates containing 96 wells each. After 24 h, medium was removed from the plates and the compounds in (in 0.1% DMSO) were added (in 200 μL medium to yield a final concentration of 0.1% v/v) to the wells of plates. A single compound was designated with four wells followed by incubation of plates for 96h at 37°C. After incubation, medium was removed completely from the plates followed by addition of MTT (0.4 mg/mL in medium) to each well and subsequent incubation of plates for 3h. MTT (along with the medium) was removed and DMSO (150μL) was added to each well of the culture plates, followed by vortexing and subsequent measurement of absorbance (at 540 nm) using microplate reader. The data are shown as percentage inhibition of proliferation in comparison with controls
# E. coli DNA gyrase = E. coli DNA gyrase (Escherichia coli, UniProt P0AES6); assay: E. coli DNA gyrase supercoiling inhibitory assay; type: biochemical
# Method: The fluorescence was measured with a microplate reader (BioTek Synergy H4,
# NaCl and 50 mM MgCl2) was added to terminate the enzymatic reaction. After
# Initial screening was done at 100 or 10 μM concentration
# [4] = tested on: P. aeruginosa (ATCC BAA-2111); assay: Antibacterial assay against multi-drug resistant strains (MIC/MBC); type: cell-based, Pseudomonas aeruginosa; settings: for MBC: ATCCBAA2111
# P. aeruginosa = assay: MIC/MBC assay, twofold serial dilution; type: cell-based, Pseudomonas aeruginosa
# Method: as §1, §2, §3, §4, §5
# S. aureus biofilm = assay: Antibiofilm assay, microtiter plate biofilm quantification
# Method: Microtiter plate assay for biofilm quantification
# The effect of sample on biofilm formation was evaluated in 96-well polystyrene
# flatbottom plates. Briefly, 300 𝜇L of inoculated fresh trypticase soy yeast broth (TSY)
# Wells containing medium and those without
# extracts and only with methanol were used as controls. Plates were incubated at 37∘C
# for 48h. After incubation, supernatant was removed and each well was washed
# thoroughly with sterile distilled water to remove free-floating cells; thereafter plates
# were air-dried for 30min, and the biofilm formed was stained during 15 min at room
# temperature with 0.1% aqueous solution of crystal violet. Following incubation, the
# excess of stain was removed by washing the plate three times with sterile distilled water.
# each well and after 15min of incubation, absorbance was measured using microplate
# reader at a wavelength of 570 nm.
# Biofilm inhibition ability of sample=(1- (absorb. sample - absorb. Blank))/
# (absorb. control - absorb. Blank))*100
# [5] = Escherichia coli, read-out: MIC
# [6] = Bacillus subtilis, read-out: MBC
# [7] = Bacillus subtilis, read-out: MIC
# [8] = Staphylococcus aureus, read-out: MBC
# [9] = Staphylococcus aureus, read-out: MIC
# [10] = Escherichia coli, ATCCBAA196, read-out: MIC
# [11] = Pseudomonas aeruginosa, ATCCBAA2111, read-out: MIC
# [12] = Pseudomonas aeruginosa, read-out: MBC
# [13] = Pseudomonas aeruginosa, read-out: MIC
# [14] = MCF-10A cells (normal mammary gland epithelial cell line)
smiles,measurement,setting,value
O=C1Nc2ccc([N+](=O)[O-])cc2/C1=N/NC(=O)c1cc(Cc2ccc(O)c(C(=O)N/N=C3\C(=O)Nc4ccc([N+](=O)[O-])cc43)c2)ccc1O [Compound 6l],MBC,E. coli; Escherichia coli,0.077 ± 0.006 µM
same,MIC,E. coli; [5],0.057 ± 0.004 µM
same,IC50,DHFR E. Coli,4250 ± 100 nM
same,MBC,Gram-positive bacteria,0.028 to 0.058 µM
same,MBC,B. subtilis,0.043 ± 0.003 µM
same,Times less effective than ciprofloxacin (MIC),B. subtilis,2.5 times
same,MBC,B. subtilis; [6],0.043 µM
same,MIC,B. subtilis; [7],0.026 ± 0.002 µM
same,MIC,C. albicans; C. albicans,19.50 ± 1 µM
same,MFC,C. albicans; Candida albicans,39.2 ± 3 µM
same,MIC,C. albicans; Candida albicans,19.5 µM
same,MBC,S. aureus,0.033 ± 0.002 µM
same,MIC,S. aureus,0.021 ± 0.002 µM
same,Times more effective than ciprofloxacin (MIC),S. aureus,1.5 times
same,MBC,S. aureus; [8],0.033 µM
same,MIC,S. aureus; [9],0.021 µM
same,MBC,[1],4.5 to 6.5 µM
same,MIC,[1],2.2 to 4.5 µM
same,MIC,A. flavus,15.60 µM and 15.60 ± 1 µM
same,MFC,A. flavus; Aspergillus flavus,31.1 ± 2 µM
same,MIC,A. flavus; Aspergillus flavus,14.5 to 19.5 µM
same,MBC,E. coli (ATCC BAA-196); Escherichia coli,4.8 ± 0.2 µM
same,MIC,E. coli (ATCC BAA-196); [10],2.7 ± 0.1 µM
same,MBC,[2]; [8],4.5 ± 0.2 µM
same,MIC,[2]; [9],2.2 ± 0.1 µM
same,"viability at 96 h, 50 µM",[3]; MCF-10A,89%
same,IC50,E. coli DNA gyrase,87 ± 6 nM
same,Potency relative to novobiocin against DNA gyrase,E. coli DNA gyrase,twice as potent as novobiocin
same,MBC,[4]; Pseudomonas aeruginosa,6.5 ± 0.25 µM
same,MIC,[4]; [11],4.5 ± 0.2 µM
same,MBC,P. aeruginosa,0.078 ± 0.006 µM
same,MBC,P. aeruginosa; [12],0.078 µM
same,MIC,P. aeruginosa; [13],0.057 ± 0.004 µM
"CCn1cc(C(=O)O)c(=O)c2cc(F)c(N3CCNCC3)cc21 [Norfloxacin, reference compound]",MBC,[1],2.8 to 4.7 µM
same,MIC,[1],1.2 to 3.2 µM
same,MIC,E. coli (ATCC BAA-196),1.60 ± 0.10 µM
same,MBC,E. coli (ATCC BAA-196); Escherichia coli,3.5 ± 0.1 µM
same,MIC,E. coli (ATCC BAA-196); [10],1.6 µM
same,MIC,[2],1.20 ± 0.10 µM
same,MBC,[2]; [8],2.8 ± 0.1 µM
same,MIC,[2]; [9],1.2 µM
same,MIC,[4],3.20 ± 0.10 µM
same,MBC,[4]; Pseudomonas aeruginosa,4.7 ± 0.2 µM
same,MIC,[4]; [11],3.2 µM
O=C1Nc2ccc(Cl)cc2/C1=N/NC(=O)c1cc(Cc2ccc(O)c(C(=O)N/N=C3\C(=O)Nc4ccc(Cl)cc43)c2)ccc1O [Compound 6h],MIC,E. coli,0.054 ± 0.003 µM
same,MBC,E. coli; Escherichia coli,0.074 ± 0.006 µM
same,MIC,E. coli; [5],0.054 µM
same,IC50,DHFR E. Coli; read-out: IC50 DHFR E. Coli,3800 ± 100 nM
same,MBC,Gram-positive bacteria,0.028 to 0.058 µM
same,MBC,B. subtilis,0.038 ± 0.002 µM
same,MIC,B. subtilis,0.024 ± 0.002 µM
same,Times less effective than ciprofloxacin (MIC),B. subtilis,2.5 times
same,MBC,B. subtilis; [6],0.038 µM
same,MIC,B. subtilis; [7],0.024 µM
same,MIC,C. albicans; C. albicans,18.20 ± 1 µM
same,MFC,C. albicans; Candida albicans,36.5 ± 2 µM
same,MIC,C. albicans; Candida albicans,18.2 µM
same,MBC,S. aureus,0.028 ± 0.001 µM
same,MIC,S. aureus,0.019 ± 0.001 µM
same,Times more effective than ciprofloxacin (MIC),S. aureus,1.5 times
same,MBC,S. aureus; [8],0.028 µM
same,MIC,S. aureus; [9],0.019 µM
same,MIC,A. flavus,14.50 µM
same,MIC,A. flavus; listed as 6 h,14.50 ± 1 µM
same,MFC,A. flavus; Aspergillus flavus,28.5 ± 1 µM
same,MIC,A. flavus; Aspergillus flavus,14.5 to 19.5 µM
same,MIC,E. coli (ATCC BAA-196),1.90 ± 0.10 µM
same,MBC,E. coli (ATCC BAA-196); Escherichia coli,3.7 ± 0.2 µM
same,MIC,E. coli (ATCC BAA-196); [10],1.9 µM
same,Biofilm inhibition %,S. aureus biofilm; 1/2 MIC of 6h (S. aureus ATCC 43300),87.66%
same,Biofilm inhibition %,"S. aureus biofilm; 1/2 MIC of 6h (S. aureus ATCC 43300), listed as 6 h",88%
same,Biofilm inhibition %,S. aureus biofilm; 1/4 of MIC of 6h (S. aureus ATCC 43300),64.10%
same,Biofilm inhibition %,"S. aureus biofilm; 1/4 of MIC of 6h (S. aureus ATCC 43300), listed as 6 h",64%
same,Biofilm inhibition %,S. aureus biofilm; MIC of 6h (S. aureus ATCC 43300),96.95%
same,Biofilm inhibition %,"S. aureus biofilm; MIC of 6h (S. aureus ATCC 43300), listed as 6 h",97%
same,Times more potent than norfloxacin (MBC),[2]; MRSA strain S. aureus ATCC 43300,around 1.2 times
same,MBC,[2],3.20 ± 0.15 µM
same,MIC,[2],1.70 ± 0.10 µM
same,MBC,[2]; [8],3.9 µM
same,MIC,[2]; [9],1.7 µM
same,"viability at 96 h, 50 µM",[3]; [14],93%
same,Potency relative to novobiocin against DNA gyrase,E. coli DNA gyrase,twice as potent as novobiocin
same,IC50,E. coli DNA gyrase; read-out: IC50 E. Coli DNA gyrase,79 ± 5 nM
same,MIC,[4],3.40 ± 0.20 µM
same,MBC,[4]; Pseudomonas aeruginosa,5.8 ± 0.3 µM
same,MIC,[4]; [11],3.4 µM
same,MBC,P. aeruginosa,0.074 ± 0.005 µM
same,MIC,P. aeruginosa,0.055 ± 0.004 µM
same,MBC,P. aeruginosa; [12],0.074 µM
same,MIC,P. aeruginosa; [13],0.055 µM
Cc1ccc2c(c1)/C(=N/NC(=O)c1cc(Cc3ccc(O)c(C(=O)N/N=C4\C(=O)Nc5ccc(C)cc54)c3)ccc1O)C(=O)N2 [Compound 6j],MBC,E. coli; Escherichia coli,0.081 ± 0.006 µM
same,MIC,E. coli; [5],0.062 ± 0.004 µM
same,IC50,DHFR E. Coli; read-out: IC50 DHFR E. Coli,5100 ± 200 nM
same,MBC,Gram-positive bacteria,0.028 to 0.058 µM
same,MBC,B. subtilis,0.047 ± 0.002 µM
same,MBC,B. subtilis; [6],0.047 µM
same,MIC,B. subtilis; [7],0.031 ± 0.002 µM
same,MFC,C. albicans; Candida albicans,41.5 ± 3 µM
same,MIC,C. albicans; Candida albicans,20.7 ± 1 µM
same,MBC,S. aureus,0.04 ± 0.002 µM
same,MIC,S. aureus,0.025 ± 0.002 µM
same,MBC,S. aureus; [8],0.04 µM
same,MIC,S. aureus; [9],0.025 µM
same,MIC,A. flavus,16.90 ± 1 µM
same,MFC,A. flavus; Aspergillus flavus,33.9 ± 2 µM
same,MIC,A. flavus; Aspergillus flavus,14.5 to 19.5 µM
same,MBC,E. coli (ATCC BAA-196); Escherichia coli,6.1 ± 0.25 µM
same,MIC,E. coli (ATCC BAA-196); [10],3.9 ± 0.15 µM
same,MBC,[2]; [8],5.9 ± 0.25 µM
same,MIC,[2]; [9],3.2 ± 0.15 µM
same,"viability at 96 h, 50 µM",[3]; [14],92%
same,IC50,E. coli DNA gyrase,117 ± 8 nM
same,MBC,[4]; Pseudomonas aeruginosa,7.8 ± 0.3 µM
same,MIC,[4]; [11],5.6 ± 0.25 µM
same,MBC,P. aeruginosa,0.08 ± 0.006 µM
same,MBC,P. aeruginosa; [12],0.08 µM
same,MIC,P. aeruginosa; [13],0.061 ± 0.005 µM
